Here are results for 28 compounds from PubChem BioAssay (NCI).

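Compound exposure: 48 hours, 5 concentrations, 96-well plates. TGI is the concentration that stops growth completely.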

Among the test systems are SW-620 colon; SK-MEL-28 melanoma; HCC-2998 colon; NCI-H460 lung; SF-539 CNS; HCT-15 colon; SF-268 CNS.
Common to all, as to assay: inhibition of tumour cell growth, NCI panel, 48 h

Consider `CC1=C(C(=O)Nc2ccccc2C)C(c2ccccc2C)C(C(=O)Nc2ccccc2C)=C(C)N1`, for which the TGI was 36.2 µM in the test on SW-620 colon; 42.5 µM with SK-MEL-28 melanoma; 36.4 µM with HCC-2998 colon; 53.9 µM in the test on NCI-H460 lung; over 10 µM in the test with SF-539 CNS; 40.3 µM in the test with HCT-15 colon. Further, the TGI with SF-268 CNS is 69.5 µM.
On to `O=C(O)C1CC2CC(=O)C1C2` (centres undefined), for which the TGI in the test with SW-620 colon, in the test on SK-MEL-28 melanoma, in the test with NCI-H460 lung, in the test on SF-539 CNS and in the test on SF-268 CNS was over 100 µM each time.
As for `O=c1[nH]c2c(c3ccccc13)CCc1ccccc1-2`, the TGI in the test with SW-620 colon, in the test on SK-MEL-28 melanoma, in the test with HCC-2998 colon, in the test with SF-539 CNS, in the test on HCT-15 colon and with SF-268 CNS was over 100 µM each time.
For the compound `Cc1ccc(Nc2nc(C)c(C(/C=C/c3ccc4c(c3)OCO4)=N/Nc3ccc([N+](=O)[O-])cc3[N+](=O)[O-])s2)c([N+](=O)[O-])c1`, the TGI in the test on SW-620 colon, in the test on SK-MEL-28 melanoma, in the test with HCC-2998 colon, in the test with NCI-H460 lung, in the test on SF-539 CNS and in the test with HCT-15 colon was over 100 µM throughout. For the same compound, the TGI in the test on SF-268 CNS was over 100 µM.
With `CC1CC(=O)c2c(ccc3c2C(=O)c2cccc(O)c2C3=O)C1` (centres undefined), the TGI was 17.4 µM in the test with SW-620 colon; 26.6 µM in the test with SK-MEL-28 melanoma; 23.2 µM in the test on HCC-2998 colon; 19.5 µM in the test with NCI-H460 lung; 29.5 µM in the test with SF-539 CNS; 22.9 µM with HCT-15 colon. In the test on SF-268 CNS, this compound had a TGI of 31.1 µM.
Regarding `Cc1cccc(N=C2NC(=O)C(CC(=O)Nc3ccccc3Cl)S2)c1` (centres undefined), the TGI in the test on SW-620 colon, in the test on SK-MEL-28 melanoma, with HCC-2998 colon, in the test with NCI-H460 lung, with SF-539 CNS and in the test on HCT-15 colon was over 100 µM throughout. In the test with SF-268 CNS, this compound gave a TGI of over 100 µM.
Consider `NC(=O)N/N=C(\CCC(=O)N(Cc1ccccc1)Cc1ccccc1)CC(=O)c1ccc(F)cc1`, for which the TGI in the test with SW-620 colon is over 100 µM; in the test on SK-MEL-28 melanoma, over 100 µM; in the test on HCC-2998 colon, over 100 µM; with NCI-H460 lung, over 100 µM; with SF-539 CNS, 62.4 µM; with HCT-15 colon it was over 100 µM. Further, in the test on SF-268 CNS, the TGI was over 100 µM.
On to `COc1ccc(/C=N\O[Si](C)(C)C(C)(C)C)cc1O[Si](C)(C)C(C)(C)C`, for which the TGI came to 36.9 µM in the test on SW-620 colon; 32.9 µM in the test on HCC-2998 colon; 46.3 µM in the test on NCI-H460 lung; 37.9 µM in the test on SF-539 CNS; 34 µM in the test with HCT-15 colon; 39.4 µM in the test with SF-268 CNS.
`NNC(=S)N/N=C(/C(=O)Nc1ccc([N+](=O)[O-])cc1)c1nc2ccc([N+](=O)[O-])cc2[nH]c1=O`: the TGI with SW-620 colon, in the test on SK-MEL-28 melanoma, in the test with HCC-2998 colon, in the test with NCI-H460 lung, in the test with SF-539 CNS and in the test with HCT-15 colon was over 100 µM each time. The compound further returned a TGI with SF-268 CNS of over 100 µM.
Take `O=C(CC(=O)c1ccccc1)C(=O)NC12CC3CC(CC(C3)C1)C2`: the TGI is over 58.7 µM in the test with SW-620 colon; over 100 µM in the test on SK-MEL-28 melanoma; over 100 µM in the test on HCC-2998 colon; over 56.9 µM with NCI-H460 lung; over 100 µM in the test on SF-539 CNS; over 54.3 µM in the test on HCT-15 colon. This compound yielded a TGI in the test on SF-268 CNS of over 100 µM.
Take `O=C(CC(=O)C1CCOC1=O)C(=O)Nc1ccc(Cl)cc1` (centres undefined): the TGI with SW-620 colon, with SK-MEL-28 melanoma, with HCC-2998 colon, in the test with NCI-H460 lung, in the test with SF-539 CNS and in the test on HCT-15 colon was over 100 µM each time. In the test on SF-268 CNS, this compound returned a TGI of over 100 µM.
Regarding `O=C1NN=C(c2ccc([N+](=O)[O-])cc2)C1n1nc(-c2ccccc2)c2ccccc2c1=O` (centres undefined), the TGI in the test on SW-620 colon is over 100 µM; in the test with SK-MEL-28 melanoma, over 100 µM; with HCC-2998 colon, over 100 µM; with NCI-H460 lung, over 100 µM; in the test with SF-539 CNS, over 100 µM; in the test with HCT-15 colon it was over 68.5 µM. In addition, in the test with SF-268 CNS, the TGI was over 100 µM.
On to `COc1cc2c(Cc3cc(OCc4ccccc4)ccc3N)nccc2c(OC)c1OC`, for which the TGI in the test with SW-620 colon, in the test on SK-MEL-28 melanoma, in the test on HCC-2998 colon, in the test with NCI-H460 lung, in the test on SF-539 CNS and in the test on HCT-15 colon was over 10 µM in each case. This compound also had a TGI in the test with SF-268 CNS of over 10 µM.
`COC(=O)c1nc(N)nc(C(=O)OC)c1C(=O)c1ccccc1`: the TGI with SW-620 colon, in the test on SK-MEL-28 melanoma, with HCC-2998 colon, in the test on NCI-H460 lung, in the test on SF-539 CNS and in the test with HCT-15 colon was over 100 µM in each case. This compound displayed a TGI in the test on SF-268 CNS of over 100 µM.
Regarding `COC(=O)C1=C(c2ccc(Cl)cc2)C(O)N=C(NN)N1` (centres undefined), the TGI in the test with SW-620 colon, in the test with SK-MEL-28 melanoma, with HCC-2998 colon, in the test on NCI-H460 lung, with SF-539 CNS and in the test on HCT-15 colon was over 100 µM in each case. The TGI in the test with SF-268 CNS is over 100 µM.
Take `N#CC(C(=O)CCC(=O)Nc1ccc(Cl)c(Cl)c1)c1ccc(Cl)cc1` (centres undefined): the TGI with SW-620 colon, in the test on SK-MEL-28 melanoma, with HCC-2998 colon, in the test with NCI-H460 lung, in the test with SF-539 CNS and with HCT-15 colon was over 100 µM throughout. Moreover, the TGI with SF-268 CNS is over 100 µM.
On to `OC1c2ccccc2C2C(O)c3ccccc3C12` (centres undefined), for which the TGI in the test with SW-620 colon, in the test with SK-MEL-28 melanoma, with HCC-2998 colon, in the test with NCI-H460 lung, in the test with SF-539 CNS and in the test with HCT-15 colon was over 100 µM throughout. The same compound gave a TGI with SF-268 CNS of over 100 µM.
On to `CC(=O)O[C@H]1CC[C@@]2(C)C(=C/C(=N\[N+](=O)[O-])[C@H]3C4CCC([C@H](C)CCCC(C)C)[C@@]4(C)CCC32)C1` (some centres undefined), for which the TGI in the test on SW-620 colon, in the test with SK-MEL-28 melanoma, with NCI-H460 lung, in the test with SF-539 CNS, with HCT-15 colon and in the test with SF-268 CNS was over 100 µM throughout.
As for `CC(=O)O/N=C/c1cc2c(cc1Br)OCO2`, the TGI in the test with SW-620 colon, in the test on SK-MEL-28 melanoma, with HCC-2998 colon, with NCI-H460 lung, in the test with HCT-15 colon and with SF-268 CNS was over 349 µM in each case.
With `CCSC(=O)C1(C)OC2CCCCC2C1=O` (centres undefined), the TGI with SW-620 colon, with SK-MEL-28 melanoma, in the test with HCC-2998 colon, with NCI-H460 lung, in the test on SF-539 CNS and in the test with HCT-15 colon was over 100 µM in each case. In the test with SF-268 CNS, this compound displayed a TGI of over 100 µM.
On to `CC1(C)N=C(Oc2ccccc2)n2nccc2N1`, for which the TGI in the test with SW-620 colon, with SK-MEL-28 melanoma, in the test with HCC-2998 colon, in the test on NCI-H460 lung, with SF-539 CNS and in the test on HCT-15 colon was over 100 µM throughout. Moreover, in the test with SF-268 CNS, the TGI is over 100 µM.
As to `O=c1cc(-c2ccc(O)cc2)oc2cc(O)cc(O)c12`, the TGI was 59.1 µM with SK-MEL-28 melanoma; 56.8 µM in the test on HCC-2998 colon; over 100 µM in the test on NCI-H460 lung; over 100 µM with HCT-15 colon; 83.9 µM in the test on SF-268 CNS.
`COC1(Cc2ccccc2)C(=O)c2ccccc2N1C(C)=O` (centres undefined): the TGI in the test on SW-620 colon, in the test with SK-MEL-28 melanoma, in the test on HCC-2998 colon, in the test on NCI-H460 lung, in the test with SF-539 CNS and in the test on HCT-15 colon was over 100 µM each time.
For `Nc1ccc(C2=Nc3ccccc3SC(c3ccccc3O)C2)cc1` (centres undefined), the TGI in the test on SW-620 colon, in the test with SK-MEL-28 melanoma, in the test with HCC-2998 colon, with NCI-H460 lung, with SF-539 CNS and with HCT-15 colon was over 100 µM in each case. The compound also came in with a TGI with SF-268 CNS of over 100 µM.
Regarding `O=C(NC1C=Nc2ccccc2NC1=O)c1ccccc1Cl` (centres undefined), the TGI with SW-620 colon is 29 µM; in the test with SK-MEL-28 melanoma it was over 100 µM; in the test with HCC-2998 colon, over 100 µM; in the test with NCI-H460 lung, over 100 µM; with SF-539 CNS, over 100 µM; in the test on HCT-15 colon, over 100 µM. The same compound displayed a TGI with SF-268 CNS of over 100 µM.
Regarding `CC#Cc1c(C#CC)c(OC)c2c(c1OC)C(=O)c1ccccc1C2=O`, the TGI was over 100 µM with SW-620 colon; over 100 µM in the test with SK-MEL-28 melanoma; over 100 µM in the test on HCC-2998 colon; over 100 µM in the test with NCI-H460 lung; over 100 µM with HCT-15 colon; 78.6 µM with SF-268 CNS.
With `CC(C)c1cccc(C(C)C)c1NC(=O)C(=O)C1SC(=S)NC1=O` (centres undefined), the TGI with SW-620 colon, in the test with SK-MEL-28 melanoma, in the test with NCI-H460 lung, with SF-539 CNS, with HCT-15 colon and in the test with SF-268 CNS was over 100 µM each time.
In the case of `CCOC(=O)/C=C1\Oc2ccccc2C1(C)O` (centres undefined), the TGI in the test with SW-620 colon, in the test on SK-MEL-28 melanoma, in the test with HCC-2998 colon, in the test with NCI-H460 lung, with HCT-15 colon and in the test on SF-268 CNS was over 100 µM throughout.
